In patent US7892830B2, “Clonal culture of human pluripotent stem cells” (Wisconsin Alumni Research Foundation, priority 2007, dated 2011):
Counter-ions that a name gives are not always drawn.

Tests used:
[1] = tested on: H1 human ES cells; assay: 6-well cloning efficiency assay in TeSR1 medium on Matrigel, colonies counted manually; assay type: cell-based; details: for max. CE (%): cloning efficiency = CFU per number of plated single cells; for confirmation in 6-well assay as active in increasing cloning efficiency: 6-well plates, varying concentrations
From the text: As described above, a difficulty in growing pluripotent cells, like ES cells, in culture is their low cloning efficiency. As used herein, “cloning efficiency” means a number of cells individualized by trypsin that form new ES cell colonies divided by the number of individual cells plated in a well of a culture dish. In our prior experience with growing human ES cells in defined and animal-free conditions on a matrix (e.g., Matrigel®), cloning efficiency was very low (i.e., less than 0.1%). This contrasts with prior experience using culture systems based on medium conditioned by exposure to fibroblasts, where the cloning efficiency, while still low (i.e., less than 2%), was high enough to initiate clonal ES cell colonies. As disclosed herein, the addition of a small molecule to the culture medium in which human ES cells are grown permits the ES cell cultures to be clonally cultivated in a manner that is extremely difficult without the addition of the small molecule. Several small molecules are exemplified herein for this purpose.
For these assays, 10,000 cells per well were plated on Matrigel®—coated plates and then treated every other day for a total of four days. with the small molecules as described above. To evaluate the effect of the tested small molecules on cloning efficiency, we manually counted colonies after 10 days.
We determined cloning efficiency (CE; the number of colony forming units (CFU) per number of plated single cells, trypsin/EDTA treated). HA-100 was the first molecule identified in the small molecule screen, following which other structurally similar small molecules were also tested for cloning efficiency.

[2] = tested on: PKA; details: cited from earlier work
[3] = tested on: PKC; details: cited from earlier work
[4] = tested on: PKG; details: cited from earlier work
[5] = tested on: H1 human ES cells; assay: Example 2 colony formation with ROCK inhibitors, ALP assay and examination by eye; assay type: cell-based; details: for concentration showing the most colony formation with the ALP assay: tested 5 nM to 20 μM, TeSR1, Matrigel
Experimental: The experiments described in Example 1 were repeated with H-1152 (EMD Chemicals, Inc./Calbiochem; San Diego, Calif.) and Y-27632 (EMD Chemicals, Inc./Calbiochem). Briefly, H-1152 or Y-27632 was dissolved in DMSO to a concentration of 20 mM. H1 human ES cells were grown on Matrigel®—coated plates in TeSR™1 medium at a density of 100,000 cells per ml. H-1152 and Y-27632 were added to wells on their own plates at a final concentration of 20 μM, 15 μM, 10 μM or 5 μM in DMSO. DMSO and HA-100 (10 μM) were used as the negative and positive controls, respectively. The plates were treated every other day for a total of four days. Colony formation was detected with the ALP assay described above.
In a second experiment, H-1152 and Y-27632 were added to wells on their own plates at a final concentration of 5 μM, 500 nM, 50 nM or 5 nM in DMSO. DMSO and HA-100 (10 μM) were used as the negative and positive controls, respectively. The plates were treated as described above.

[6] = tested on: H1 human ES cells; assay: Fluorometric high-throughput ALP (DiFMUP) screen for colony formation, 96-well; assay type: cell-based; details: 10 μM, 500 cells per well, TeSR1, a typical hit read above 200,000
Experimental: The screen was conducted using a fluorescent, high-throughput assay to screen small molecules for their ability to enhance cloning efficiency. A soluble, non-fluorescent substrate (6,8-difluoro-4-methylumbelliferyl phosphate, DiFMUP) was converted to a fluorescent product by an enzyme specific for undifferentiated, human ES cells called alkaline phosphatase (ALP).
In wells that had colonies larger than 2,000 cells, and which formed 12 days after seeding 500 individualized human ES cells in a 96-well plate, increased fluorescence from DiFMUP hydrolyzed by ALP indicated any well that contained a compound that enabled colony formation. […] Thus, this assay tested both for clonal propagation and for maintenance of undifferentiated status.
The screen used a small molecule library made up of characterized compounds with known bioactivity that was purchased from Sigma-Aldrich (St. Louis, Mo.). Members of the library were dissolved in DMSO to a concentration of 1 mM. All other chemicals used were purchased from Sigma, unless otherwise indicated in the text. H1 human ES cells (WiCell Research Institute; Madison, Wis.) were grown in the defined TeSR™1 medium, which was prepared as described in Ludwig et al., supra.
The assay was performed at the Keck-UWCCC Small Molecule Screening Facility (University of Wisconsin—Madison; Madison, Wis.) in 96-well microplates (Nunclon/Nunc; Roskilde, Denmark) using a Beckman Biomek® FX Laboratory Workstation and a Perkin Elmer VictorIII® Plate Reader. The microplates were coated with Matrigel® (#354230, growth factor reduced; BD Bioscience; San Jose, Calif.) at 0.3 mg/ml in DMEM/F12 (Invitrogen; Carlsbad, Calif.) for 1 hour at room temperature.
H1 human ES cells were grown in 6-well Nunclon® dishes to day 5, and then treated with 1 ml Trypsin/EDTA (Invitrogen) containing 1% chick serum for 5 minutes at 37° C. Trypsin was quenched with 20% FBS in DMEM/F12, and the cells were collected by centrifugation for 1.5 minutes at 200 RCF. After aspiration of the medium, cells were re-suspended in TeSR™1 medium to a density of 5,000 cells per ml. Of this cell suspension, 100 μL was dispensed into each well, and 1 μL of a […] DMSO solution of inhibitor was added and mixed by pipetting, resulting in a final inhibitor concentration of 10 μM. The plates were incubated at 5% CO2 at 37° C. for 2 days. Then, the medium was exchanged with TeSR™1 medium not having the cloning molecule. […]
To detect colony formation, we used a fluorometric, ALP assay (EnzChek®; Invitrogen). […] In wells that had colonies, increased fluorescence indicated any well containing a compound that led to colony formation. […] Plates were read by a multi-plate reader (excitation 355 nm, emission 455 nm, at 0.1 ms emission intervals).

[7] = tested on: human ES cells; assay: Cloning efficiency in conditioned medium (CM); assay type: cell-based; details: CM substituted for TeSR1, otherwise identical treatment
Experimental: (§1) We have also tested these small molecules for effects on human ES cell cloning on other medium. We tested the effect on conditioned medium (CM) substituting TeSR™1 medium with CM and otherwise identical treatment. The cloning efficiency of the medium increased with addition of HA-100. In addition, we performed a similar test with unconditioned medium to which 100 ng/μl of bFGF had been added.

[8] = tested on: human ES cells; assay: Cloning efficiency in unconditioned medium with added bFGF; assay type: cell-based; details: unconditioned medium with 100 ng/μl bFGF, compared to control cultures lacking HA-100
Experimental: as §1

[9] = tested on: Oct4; assay: Oct4 immunofluorescence of cloned colonies; assay type: cell-based, human; details: colonies from HA-100 treatment
From the text: We also tested the resulting colonies from HA-100 treatment for the presence of Oct4, an intracellular marker for pluripotent ES cells.

[10] = tested on: ROCK1/ROCK2; details: read-out: IC50 ROCK1/ROCK2; competing with ATP; cited from earlier work

Compound | max. CE (%) ([1]; TeSR1, Matrigel) | IC50 [2] | IC50 [3] | IC50 [4] | confirmation in 6-well assay as active in increasing cloning efficiency [1] | result of small molecule screen (colony formation, ALP fluorescence) [6] | further results
CC1CNCCN1S(=O)(=O)c1cccc2cnccc12 (centres unmarked) [H-7, 1-(5-isoquinolinesulfonyl)-2-methylpiperazine] | <1% | 3 µM | 6 µM | 5.8 µM |  |  | 
O=S(=O)(NCCNC/C=C/c1ccc(Br)cc1)c1cccc2cnccc12 [H-89, N-[2-p-bromo-cinnamylamino)ethyl]-5-isoquinolinesulfonamide dihydrochloride] | 2.5% |  | 31.7 µM | 0.48 µM |  |  | 
Cc1cncc2cccc(S(=O)(=O)N3CCCNC[C@@H]3C)c12 [H-1152, (S)-(+)-2-methyl-1-[(4-methyl-5-isoquinolinyl)sulfonyl]homopiperazine dihydrochloride] |  |  |  |  |  |  | colony formation by eye compared with HA-100 (at 10 μM) ([5]; concentrations above 500 nM): equal or better than HA-100; working concentration compared with HA-100 ([5]; facilitating clonal growth): ten times lower; concentration showing the most colony formation with the ALP assay [5]: 500 nM
O=S(=O)(c1cccc2cnccc12)N1CCNCC1 [HA-100, 1-(5-isoquinolinesulfonyl)piperazine hydrochloride] | 2% | 8 µM | 12 µM | 4 µM | confirmed | hits | effect on cloning efficiency in conditioned medium [7]: increased; effect on cloning efficiency in unconditioned medium [8]: increased cloning efficiency; Oct4 expression in cloned colonies (immunofluorescence) [9]: maintenance of Oct4 expression
Cl.N=C(N)NCCNS(=O)(=O)c1cccc2cnccc12 [HA-1004, N-(2-guanidinoethyl)-5-isoquinolinesulfonamide hydrochloride] | <1% | 2.3 µM | 40 µM | 1.3 µM |  |  | CFU+ (concentration range with colony forming units) ([1]; 6-well plates, 10,000 cells per well, TeSR1, Matrigel, colonies counted after 10 days): >50.0 µM
Cl.Cl.O=S(=O)(c1cccc2cnccc12)N1CCCNCC1 [HA-1077, 1-(5-isoquinolinesulfonyl)homopiperazine dihydrochloride] |  |  |  |  |  |  | effect on cloning efficiency of human ES cells ([1]; related small molecules tested after HA-100): increased cloning efficiency
C[C@@H](N)[C@H]1CC[C@H](C(=O)Nc2ccncc2)CC1 [Y-27632, (+)-(R)-trans-4-(1-aminoethyl)-N-(4-pyridyl)cyclohexanecarboxamide dihydrochloride] |  |  |  |  |  |  | colony formation by eye compared with HA-100 (at 10 μM) ([5]; concentrations above 5 μM): equal or better than HA-100; concentration showing the most colony formation with the ALP assay [5]: 5000 nM; IC50 [10]: 0.8 µM
CC1CN(S(=O)(=O)c2cccc3cnccc23)CCN1 (centres unmarked) [iso H-7, 1-(5-isoquinolinesulfonyl)-3-methylpiperazine] | <1% | > 3 µM | > 6 µM | > 5.8 µM |  |  | 
CC(C)CCC[C@@H](C)[C@H]1CC[C@H]2C3=CC[C@H]4C[C@@H](O)CC[C@]4(C)[C@H]3CC[C@]12C [lathosterol] |  |  |  |  | only HA-100 could be confirmed | hits | 
CC1(C)OC(=O)C=CC2(C)C1CC(O)C1(C)C2CCC2(C)C(c3ccoc3)OC(=O)C3OC321 (centres unmarked) [obacunol] |  |  |  |  | only HA-100 could be confirmed | hits | 
quipazine dimaleate |  |  |  |  | only HA-100 could be confirmed | hits | 
